Drawing on US20260184710A1, “CASITAS B-LINEAGE LYMPHOMA PROTOONCOGENE B (CBL-B) DEGRADING COMPOUNDS AND ASSOCIATED METHODS OF USE” (Arvinas Operations, Inc., priority 2022, published 2026), this text covers DC50 and Dmax for eight compounds.

Test [1] addresses T1, Cbl-b (Homo sapiens, UniProt Q13191).
T1 construct: Cbl-b-HiBit KI Jurkat Cells were purchased from Promega; host or cells: Cbl-b-HiBiT knock-in Jurkat cells
Nature of the test: Cbl-b Degradation Method A (FACS, anti-Cbl-b antibody staining). The test is classed as cell-based. The conditions noted are these: Cbl-b-HiBit KI Jurkat Cells, incubated at least 20 hours; for DC50: half maximal degradation, read-out: Cbl-b Degredation Method A IC50; for Dmax: Jurkat, maximum degradation observed, read-out: Cbl-b Degredation Method A Dmax (%). The procedure, abridged: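 Readout is flow cytometry of fixed, permeabilized cells immunostained for Cbl-b (primary 1:200, AF488 secondary). Cells were Cbl-b-HiBit knock-in Jurkat, exposed to compound ≥20 h at 37 °C; half-maximal degradation concentration (DC50) and maximal degradation (Dmax) calculated relative to control.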
On the technique in general: The HiBiT peptide binds its large partner to form an active luciferase.

For test [2], the target named is T1, Cbl-b. In words: Cbl-b Degradation Method B (Nano-Glo HiBiT lytic detection). The test is classed as cell-based. The conditions noted are these: Cbl-b-HiBit KI Jurkat Cells, incubated at least 6-24 hours; for DC50: half maximal degradation, read-out: Cbl-b Degredation Method B IC50; for Dmax: maximum degradation observed, read-out: Cbl-b Degredation Method B Dmax (%). Put shortly: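 An 11-point, 3-fold compound dilution was applied for 6-24 hours to Jurkat cells carrying HiBiT-tagged endogenous Cbl-b. Lytic HiBiT luminescence quantified residual protein. Outputs are DC50 and Dmax relative to DMSO control.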

Molecules are shown by their SMILES.

T1 sequence (Q13191 whole entry): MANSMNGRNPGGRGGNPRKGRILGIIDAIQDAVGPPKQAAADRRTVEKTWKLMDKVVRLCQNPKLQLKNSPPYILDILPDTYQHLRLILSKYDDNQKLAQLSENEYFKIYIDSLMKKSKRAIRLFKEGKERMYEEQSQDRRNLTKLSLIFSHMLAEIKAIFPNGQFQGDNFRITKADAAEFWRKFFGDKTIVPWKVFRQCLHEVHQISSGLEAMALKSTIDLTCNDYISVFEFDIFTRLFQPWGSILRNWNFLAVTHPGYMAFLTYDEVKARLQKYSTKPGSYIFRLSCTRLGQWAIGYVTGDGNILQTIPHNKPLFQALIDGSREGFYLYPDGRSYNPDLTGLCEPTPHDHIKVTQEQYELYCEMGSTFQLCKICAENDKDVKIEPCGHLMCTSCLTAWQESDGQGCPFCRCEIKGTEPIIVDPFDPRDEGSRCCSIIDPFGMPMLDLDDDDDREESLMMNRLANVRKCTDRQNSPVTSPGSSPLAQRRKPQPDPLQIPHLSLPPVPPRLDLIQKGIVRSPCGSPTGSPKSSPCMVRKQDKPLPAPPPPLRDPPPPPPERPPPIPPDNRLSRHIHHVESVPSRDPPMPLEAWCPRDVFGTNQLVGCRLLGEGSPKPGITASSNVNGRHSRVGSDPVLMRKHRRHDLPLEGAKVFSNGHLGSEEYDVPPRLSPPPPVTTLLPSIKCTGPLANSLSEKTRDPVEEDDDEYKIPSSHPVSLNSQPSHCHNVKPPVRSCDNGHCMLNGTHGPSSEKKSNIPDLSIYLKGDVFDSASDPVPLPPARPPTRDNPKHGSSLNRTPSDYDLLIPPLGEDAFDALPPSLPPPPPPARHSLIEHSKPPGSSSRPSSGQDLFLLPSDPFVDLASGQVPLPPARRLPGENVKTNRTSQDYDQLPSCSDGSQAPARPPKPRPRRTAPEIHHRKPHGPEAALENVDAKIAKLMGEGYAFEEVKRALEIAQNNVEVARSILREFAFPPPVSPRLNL

As a reminder, the Dmax is the greatest extent of degradation seen. Consider `Cn1cnnc1C[C@]1(c2cccc(N3Cc4c(cc(N5CC6(CCN(CC7(F)CCN(c8ccc9c(c8)C(=O)N(C8CCC(=O)NC8=O)C9=O)CC7)CC6)C5)cc4C(F)(F)F)C3=O)c2)C[C@H](C#N)C1` (some centres unmarked) [Example 172, (1r,3r)-3-(3-{6-[7-({1-[2-(2,6-dioxopiperidin-3-yl)-1,3-dioxo-2,3-dihydro-1H-isoindol-5-yl]-4-fluoropiperidin-4-yl}methyl)-2,7-diazaspiro[3.5]nonan-2-yl]-1-oxo-4-(trifluoromethyl)-2,3-dihydro-1H-isoindol-2-yl}phenyl)-3-[(4-methyl-4H-1,2,4-triazol-3-yl)methyl]cyclobutane-1-carbonitrile], for which, on Cbl-b [1], the DC50 lay within 5 to 50 nM and the Dmax was in the range of 35 to 70%. Also, on Cbl-b [2], the DC50 was 5 to 50 nM and the Dmax lay within 35 to 70%.

Consider `Cn1cnnc1C[C@]1(c2cccc(N3Cc4c(cc(N5CC6(CCN(CC7CCN(c8ccc9c(c8Cl)CN(C8CCC(=O)NC8=O)C9=O)CC7)CC6)C5)cc4C(F)(F)F)C3=O)c2)C[C@H](C#N)C1` (some centres unmarked) [Example 173, (1r,3r)-3-(3-{6-[7-({1-[4-chloro-2-(2,6-dioxopiperidin-3-yl)-1-oxo-2,3-dihydro-1H-isoindol-5-yl]piperidin-4-yl}methyl)-2,7-diazaspiro[3.5]nonan-2-yl]-1-oxo-4-(trifluoromethyl)-2,3-dihydro-1H-isoindol-2-yl}phenyl)-3-[(4-methyl-4H-1,2,4-triazol-3-yl)methyl]cyclobutane-1-carbonitrile], for which, at Cbl-b [1], the DC50 is 5 to 50 nM and the greatest degradation seen (Dmax) is over 70%. Moreover, on Cbl-b [2], the DC50 was under 5 nM and the maximal degradation (Dmax) lay in the range of 35 to 70%.

Regarding `COc1c(N2CCC(CN3CCC4(CC3)CN(c3cc5c(c(C(F)(F)F)c3)CN(c3cccc([C@]6(Cc7nncn7C)C[C@@H](C#N)C6)c3)C5=O)C4)CC2)ccc2c1CN(C1CCC(=O)NC1=O)C2=O` (some centres unmarked) [Example 174, (1r,3r)-3-(3-{6-[7-({1-[2-(2,6-dioxopiperidin-3-yl)-4-methoxy-1-oxo-2,3-dihydro-1H-isoindol-5-yl]piperidin-4-yl}methyl)-2,7-diazaspiro[3.5]nonan-2-yl]-1-oxo-4-(trifluoromethyl)-2,3-dihydro-1H-isoindol-2-yl}phenyl)-3-[(4-methyl-4H-1,2,4-triazol-3-yl)methyl]cyclobutane-1-carbonitrile], the DC50 is 5 to 50 nM on Cbl-b [1] and under 5 nM at Cbl-b [2]. The greatest degradation seen (Dmax) at Cbl-b [1] and on Cbl-b [2] was over 70% throughout.

In the case of `CC1c2nc(N3CCC(O[C@H]4CC[C@H](CN5CCC6(CC5)CN(c5cc7c(c(C(F)(F)F)c5)CN(c5cccc([C@]8(Cc9nncn9C)C[C@@H](C#N)C8)c5)C7=O)C6)CC4)CC3)ccc2C(=O)N1C1CCC(=O)NC1=O` (some centres unmarked) [Example 175, (1r,3r)-3-[(4-methyl-4H-1,2,4-triazol-3-yl)methyl]-3-{3-[1-oxo-6-(7-{[(1r,4r)-4-({1-[6-(2,6-dioxopiperidin-3-yl)-7-methyl-5-oxo-5H,6H,7H-pyrrolo[3,4-b]pyridin-2-yl]piperidin-4-yl}oxy)cyclohexyl]methyl}-2,7-diazaspiro[3.5]nonan-2-yl)-4-(trifluoromethyl)-2,3-dihydro-1H-isoindol-2-yl]phenyl}cyclobutane-1-carbonitrile], at Cbl-b [1], the DC50 lay in the range of 5 to 50 nM and the Dmax is over 70%. For the same compound, at Cbl-b [2], the DC50 is under 5 nM and the Dmax lay in the range of 35 to 70%.

On to `Cc1cc(N2CCC(CN3CCC4(C3)CN(c3cc5c(c(C(F)(F)F)c3)CN(c3cccc([C@]6(Cc7nncn7C)C[C@@H](C#N)C6)c3)C5=O)C4)CC2)c(F)c2c1C(=O)N(C1CCC(=O)NC1=O)C2` (some centres unmarked) [Example 176, (1r,3r)-3-(3-{6-[6-({1-[2-(2,6-dioxopiperidin-3-yl)-4-fluoro-7-methyl-1-oxo-2,3-dihydro-1H-isoindol-5-yl]piperidin-4-yl}methyl)-2,6-diazaspiro[3.4]octan-2-yl]-1-oxo-4-(trifluoromethyl)-2,3-dihydro-1H-isoindol-2-yl}phenyl)-3-[(4-methyl-4H-1,2,4-triazol-3-yl)methyl]cyclobutane-1-carbonitrile], for which, at Cbl-b [1], the DC50 lay within 5 to 50 nM and the greatest degradation seen (Dmax) was 35 to 70%. On Cbl-b [2], the DC50 is under 5 nM and the Dmax was in the range of 35 to 70%.

As to `Cc1cc(N2CCC(CN3CCC4(CCN(c5cc6c(c(C(F)(F)F)c5)CN(c5cccc([C@]7(Cc8nncn8C)C[C@@H](C#N)C7)c5)C6=O)C4)C3)CC2)c(F)c2c1C(=O)N(C1CCC(=O)NC1=O)C2` (some centres unmarked) [Example 177, (1r,3r)-3-(3-{6-[7-({1-[2-(2,6-dioxopiperidin-3-yl)-4-fluoro-7-methyl-1-oxo-2,3-dihydro-1H-isoindol-5-yl]piperidin-4-yl}methyl)-2,7-diazaspiro[4.4]nonan-2-yl]-1-oxo-4-(trifluoromethyl)-2,3-dihydro-1H-isoindol-2-yl}phenyl)-3-[(4-methyl-4H-1,2,4-triazol-3-yl)methyl]cyclobutane-1-carbonitrile], at Cbl-b [1], the DC50 fell in the range of 5 to 50 nM and the maximal degradation (Dmax) was in the range of 35 to 70%. Further, on Cbl-b [2], the DC50 was under 5 nM and the Dmax is 35 to 70%.

Regarding `CC1c2nc(N3CCC(O[C@H]4CC[C@H](CN5CCC6(C5)CN(c5cc7c(c(C(F)(F)F)c5)CN(c5cccc([C@]8(Cc9nncn9C)C[C@@H](C#N)C8)c5)C7=O)C6)CC4)CC3)ccc2C(=O)N1C1CCC(=O)NC1=O` (some centres unmarked) [Example 178, (1r,3r)-3-[(4-methyl-4H-1,2,4-triazol-3-yl)methyl]-3-{3-[1-oxo-6-(6-{[(1r,4r)-4-({1-[6-(2,6-dioxopiperidin-3-yl)-7-methyl-5-oxo-5H,6H,7H-pyrrolo[3,4-b]pyridin-2-yl]piperidin-4-yl}oxy)cyclohexyl]methyl}-2,6-diazaspiro[3.4]octan-2-yl)-4-(trifluoromethyl)-2,3-dihydro-1H-isoindol-2-yl]phenyl}cyclobutane-1-carbonitrile], at Cbl-b [1], the DC50 was in the range of 5 to 50 nM and the Dmax is 35 to 70%. Also, at Cbl-b [2], the DC50 is under 5 nM and the Dmax was in the range of 35 to 70%.

In the case of `CC1c2nc(N3CCC(O[C@H]4CC[C@H](CN5CCC6(CCN(c7cc8c(c(C(F)(F)F)c7)CN(c7cccc([C@]9(Cc%10nncn%10C)C[C@@H](C#N)C9)c7)C8=O)C6)C5)CC4)CC3)ccc2C(=O)N1C1CCC(=O)NC1=O` (some centres unmarked) [Example 179, (1r,3r)-3-[(4-methyl-4H-1,2,4-triazol-3-yl)methyl]-3-{3-[1-oxo-6-(7-{[(1r,4r)-4-({1-[6-(2,6-dioxopiperidin-3-yl)-7-methyl-5-oxo-5H,6H,7H-pyrrolo[3,4-b]pyridin-2-yl]piperidin-4-yl}oxy)cyclohexyl]methyl}-2,7-diazaspiro[4.4]nonan-2-yl)-4-(trifluoromethyl)-2,3-dihydro-1H-isoindol-2-yl]phenyl}cyclobutane-1-carbonitrile], the DC50 on Cbl-b [1] is 5 to 50 nM; at Cbl-b [2], under 5 nM. Besides, the Dmax at Cbl-b [1] and at Cbl-b [2] was 35 to 70% throughout.
